{
  "source": "patent US5250517A",
  "about": "(Hoffmann-La Roche Inc., priority 1987, dated 1993)",
  "molecular_target": "T1, human renin (Homo sapiens, UniProt P00797)",
  "T1 sequence (P00797 67-406)": "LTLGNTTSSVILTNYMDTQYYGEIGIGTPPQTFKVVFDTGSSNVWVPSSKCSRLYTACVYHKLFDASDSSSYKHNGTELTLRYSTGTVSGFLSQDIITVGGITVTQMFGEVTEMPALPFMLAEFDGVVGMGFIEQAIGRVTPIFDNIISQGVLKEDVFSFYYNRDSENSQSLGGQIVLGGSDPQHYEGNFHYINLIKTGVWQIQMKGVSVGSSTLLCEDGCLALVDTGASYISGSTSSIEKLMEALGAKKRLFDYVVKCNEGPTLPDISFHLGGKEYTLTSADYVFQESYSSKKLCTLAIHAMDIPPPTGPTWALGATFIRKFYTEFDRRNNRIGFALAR",
  "experiment": "In Vitro Test With Pure Human Renin",
  "type": "biochemical",
  "conditions": "human tetradecapeptide renin substrate (hTD), pH 7.4, 3 hours at 37° C. vs 4° C., angiotensin I by RIA",
  "experimental": "In Vitro Test With Pure Human Renin\nThe test is carried out in Eppendorf test tubes. The incubation mixture consists of (1) 100 μl of human renin in buffer A (0.1M sodium phosphate solution, pH 7.4, containing 0.1% bovine serum albumin, 0.1% sodium azide and 1 mM ethylenediaminetetraacetic acid), sufficient for a renin activity of 2-3 ng of angiotensin I/ml/hr.; (2) 145 μl of buffer A; (3) 30 μl of 10 μM human tetradecapeptide renin substrate (hTD) in 10 mM hydrochloric acid; (4) 15 μl of dimethyl sulfoxide with or without inhibitor and (5) 10 μl of a 0.03 molar solution of hydroxyquinoline sulfate in water.\nThe samples are incubated for 3 hours at 37° C. or 4° C. in triplicate. 2×100 μl samples per experimental test tube are used in order to measure the production of angiotensin I via RIA (standard radioimmunoassay; clinical assay solid phase kit). […] The production of angiotensin I in determined by the difference between the experiment at 37° C. and that at 4° C.\nThe following controls are carried out:\n(a) Incubation of hTD samples without renin and without inhibitor at 37° C. and 4° C. The difference between these two values gives the base value of angiotensin I production.\n(b) Incubation of hTD samples with renin, but without inhibitor at 37° C. and 4° C. The difference between these values gives the maximal value of angiotensin I production.\nIn each sample, the base value of the angiotensin I production is subtracted from the angiotensin I production which is determined. The difference between the maximal value and the base value gives the value of the maximal substrate hydrolysis (=100%) by renin.\nThe IC50 values are determined from a linear regression curve from a logit-log plot.",
  "note": "pIC50: −log10 of the molar value. Where a SMILES comes first, the peptide text is derived from it. [ ]: non-standard residue; d: D form. The star is where a group is joined. X1 = C=C[C@@H](CC(O)[C@H](CC1CCCCC1)N*)C(C)C; Boc = CC(C)(C)OC(=O)*",
  "data": [
    {"smiles": "C=C[C@@H](CC(O)[C@H](CC1CCCCC1)NC(=O)[C@H](Cc1c[nH]cn1)NC(=O)[C@H](Cc1ccccc1)NC(=O)[C@@H]1CCCN1C(=O)[C@H]1CCCN1C(=O)OC(C)(C)C)C(C)C", "note": "(stereo partly drawn) [R, (2S,5S)-2-(Boc--D--Pro--Pro--Phe--His--NH)-1-cyclohexyl-5-isopropyl-6-hepten-3-ol] (Boc-[dP]PFH-X1)", "values": [
      {"measurement": "pIC50", "result": 8.77}
    ]},
    {"smiles": "C=C[C@@H](C[C@H](O)[C@H](CC1CCCCC1)NC(=O)[C@H](Cc1c[nH]cn1)NC(=O)[C@H](Cc1ccccc1)NC(=O)N1CCOCC1)C(C)C", "note": "[M]", "values": [
      {"measurement": "pIC50", "result": 7.68}
    ]},
    {"smiles": "CC[C@@H](C[C@H](O)[C@H](CC1CCCCC1)NC(=O)[C@H](Cc1c[nH]cn1)NC(=O)C(CC(=O)N1CCOCC1)Cc1cccc2ccccc12)C(C)C", "note": "(some centres unmarked) [H]", "values": [
      {"measurement": "pIC50", "result": 8.39}
    ]},
    {"smiles": "C=C[C@@H](C[C@H](O)[C@H](CC1CCCCC1)NC(=O)[C@H](Cc1c[nH]cn1)NC(=O)C(CC(=O)C1CCCC1)Cc1ccccc1)C(C)C", "note": "(mixture of isomers) [P, (S)-N-[(1S,2S,4S)-1-(cyclohexylmethyl)-2-hydroxy-4-isopropyl-5-hexenyl]-α-[(RS)-α-[(cyclopentyl-carbonyl)methyl]hydrocinnamamido]imidazole-4-propionamide]", "values": [
      {"measurement": "pIC50", "result": 7.34}
    ]},
    {"smiles": "C=C[C@@H](C[C@H](O)[C@H](CC1CCCCC1)NC(=O)[C@H](Cc1c[nH]cn1)NC(=O)[C@@H](CC(=O)N(C)C)Cc1ccccc1)C(C)C", "note": "[O, (S)-N-[(1S,2S,4S)-1-(cyclohexylmethyl)-2-hydroxy-4-isopropyl-5-hexenyl]-α-[(R)-α-[(dimethylcarbamoyl)-methyl]hydrocinnamamido]imidazole-4-propionamide]", "values": [
      {"measurement": "pIC50", "result": 7.92}
    ]},
    {"smiles": "CC[C@@H](C[C@H](O)[C@H](CC1CCCCC1)NC(=O)[C@H](Cc1c[nH]cn1)NC(=O)C(CC(=O)C1CCCC1)Cc1ccccc1)C(C)C", "note": "(mixture of isomers) [Q]", "values": [
      {"measurement": "pIC50", "result": 7.17}
    ]},
    {"smiles": "CC[C@@H](C[C@H](O)[C@H](CC1CCCCC1)NC(=O)[C@H](Cc1c[nH]cn1)NC(=O)[C@@H](CC(=O)[C@@H]1CCCN1C(=O)OC(C)(C)C)Cc1ccccc1)C(C)C", "note": "[F, t-butyl (S)-2-[[(R)-α-[[(S)-1-[[(1S,2S,4S)-1-(cyclohexylmethyl)-2-hydroxy-4-isopropylhexyl]carbamoyl]-2-imidazol-4-ylethyl]carbamoyl]phenethyl]acetyl]-1-pyrrolidinecarboxylate]", "values": [
      {"measurement": "pIC50", "result": 8.40}
    ]},
    {"smiles": "CC[C@@H](C[C@H](O)[C@H](CC1CCCCC1)NC(=O)[C@H](Cc1c[nH]cn1)NC(=O)[C@H](Cc1ccccc1)NC(=O)OC(C)(C)C)C(C)C", "note": "[E, t-butyl [(S)-α-[[(S)-1-[[(1S,2S,4S)-1-cyclohexylmethyl-2-hydroxy-4-isopropylhexyl]carbamoyl]-2-imidazol-4-ylethyl]carbamoyl]phenethyl]carbamate]", "values": [
      {"measurement": "pIC50", "result": 8.10}
    ]},
    {"smiles": "C=C[C@@H](C[C@H](O)[C@H](CC1CCCCC1)NC(=O)[C@H](Cc1c[nH]cn1)NC(=O)C(CC(=O)NCCN(CC(=O)OC(C)(C)C)C(=O)OC(C)(C)C)Cc1ccccc1)C(C)C", "note": "(mixture of isomers) [Compound I, t-butyloxycarbonyl [2-[(R and S)-3-[[(S)-1-[[(1S,2S,4S)-1-(cyclohexylmethyl)-2-hydroxy-4-isopropyl-5-hexenyl]carbamoyl]-2-imidazol-4-ylethyl]-carbamoyl]-4-phenylbutyramido]ethyl]glycine t-butyl ester]", "values": [
      {"measurement": "pIC50", "result": 7.34}
    ]},
    {"smiles": "C=C[C@@H](C[C@H](O)[C@H](CC1CCCCC1)NC(=O)[C@H](Cc1c[nH]cn1)NC(=O)[C@H](Cc1ccccc1)NC(=O)OC(C)(C)C)C(C)C", "note": "[D, t-butyl [(S)-α-[[(S)-1-[[(1S,2S,4S)-1-cyclohexylmethyl-2-hydroxy-4-isopropyl-5-hexenyl]carbamoyl]-2-imidazol-4-ylethyl]carbamoyl]phenethyl]carbamate]", "values": [
      {"measurement": "pIC50", "result": 8.12}
    ]},
    {"smiles": "C=C[C@@H](C[C@H](O)[C@H](CC1CCCCC1)NC(=O)[C@H](Cc1c[nH]cn1)NC(=O)[C@@H](CC(=O)C(C)(C)C)Cc1ccccc1)C(C)C", "note": "[L]", "values": [
      {"measurement": "pIC50", "result": 8.15}
    ]},
    {"smiles": "C=C[C@@H](C[C@H](O)[C@H](CC1CCCCC1)NC(=O)[C@H](Cc1c[nH]cn1)NC(=O)[C@@H](CC(=O)NC(C)(CO)CO)Cc1ccccc1)C(C)C", "note": "[K, (S)-N-[(1S,2S,4S)-1-(cyclohexylmethyl)-2-hydroxy-4-isopropyl-5-hexenyl]-α-[(R)-α-[[[2-hydroxy-1-(hydroxymethyl)-1-methylethyl]carbamoyl]methyl]hydrocinnamamido]imidazole-4-propionamide]", "values": [
      {"measurement": "pIC50", "result": 7.77}
    ]},
    {"smiles": "C=C[C@@H](C[C@H](O)[C@H](CC1CCCCC1)NC(=O)[C@H](Cc1c[nH]cn1)NC(=O)[C@@H](CC(N)=O)Cc1ccccc1)C(C)C", "note": "[N, (S)-α-[(R)-α-(carbamoylmethyl)hydrocinnamamido]-N-[(1S,2S,4S)-1-(cyclohexylmethyl)-2-hydroxy-4-isopropyl-5-hexenyl]imidazole-4-propionamide]", "values": [
      {"measurement": "pIC50", "result": 6.85}
    ]},
    {"smiles": "CC[C@@H](C[C@H](O)[C@H](CC1CCCCC1)NC(=O)[C@H](Cc1c[nH]cn1)NC(=O)[C@H](Cc1ccccc1)NC(=O)[C@H]1CCCN1C(=O)OC(C)(C)C)C(C)C", "note": "[A]", "values": [
      {"measurement": "pIC50", "result": 8.46}
    ]},
    {"smiles": "C=C[C@@H](C[C@H](O)[C@H](CC1CCCCC1)NC(=O)[C@H](Cc1c[nH]cn1)NC(=O)CC(C)C)C(C)C", "note": "[C]", "values": [
      {"measurement": "pIC50", "result": 8.05}
    ]},
    {"smiles": "C=C[C@@H](C[C@H](O)[C@H](CC1CCCCC1)NC(=O)[C@H](Cc1c[nH]cn1)NC(=O)[C@H](Cc1ccccc1)NC(=O)[C@H]1CCCN1C(=O)OC(C)(C)C)C(C)C", "note": "[B, (2S,3S,5S)-2-(Boc--D--Pro--Phe--His--NH)-1-cyclohexyl-5-isopropyl-6-hepten-3-ol]", "values": [
      {"measurement": "pIC50", "result": 9.52}
    ]},
    {"smiles": "CC[C@@H](C[C@H](O)[C@H](CC1CCCCC1)NC(=O)[C@H](Cc1c[nH]cn1)NC(=O)[C@@H](CC(=O)NC(C)(CO)CO)Cc1ccccc1)C(C)C", "note": "[G, (S)-N-[(1S,2S,4S)-1-(cyclohexylmethyl)-2-hydroxy-4-isopropylhexyl]-α-[[[[(R)-α-2-hydroxy-1-(hydroxymethyl)-1-methylethyl]carbamoyl]methyl]hydrocinnamamido]imidazole-4-propionamide]", "values": [
      {"measurement": "pIC50", "result": 7.82}
    ]}
  ]
}
